Data on five compounds can be found in paper PMC4904246 (Journal of Medicinal Chemistry, 2016).

Structures are written as SMILES. Values after ≈ are worked out from the molar mass of the structure shown. Read-outs that look alike come from different tables or passages of the source. Marks after values point to notes of the source that are not given here.

One data set has as its target hERG K+ channel (Homo sapiens, UniProt Q12809).
Data set [1] relates to P. falciparum Pf3D7_0087/N9 parasites. The note with it: cited from earlier work.
The conditions of data set [2]: cited from earlier work.
The conditions of data set [3]: cited from earlier work. This is another data set of the same source.
The conditions of data set [4]: rat plasma; cited from earlier work.
The conditions of data set [5]: mouse plasma; cited from earlier work.
The conditions of data set [6]: scaled; cited from earlier work.
The conditions of data set [7]: scaled; cited from earlier work. This is another data set of the same source.
The conditions of data set [8]: plasma; cited from earlier work.
For data set [9] the following is noted: fed state simulated intestinal fluid, pH 5.8 (footnote c); cited from earlier work.
For data set [10], the target named is T1, PvDHODH (Plasmodium vivax, UniProt A5K1N1).
T1 sequence (A5K1N1 160-572): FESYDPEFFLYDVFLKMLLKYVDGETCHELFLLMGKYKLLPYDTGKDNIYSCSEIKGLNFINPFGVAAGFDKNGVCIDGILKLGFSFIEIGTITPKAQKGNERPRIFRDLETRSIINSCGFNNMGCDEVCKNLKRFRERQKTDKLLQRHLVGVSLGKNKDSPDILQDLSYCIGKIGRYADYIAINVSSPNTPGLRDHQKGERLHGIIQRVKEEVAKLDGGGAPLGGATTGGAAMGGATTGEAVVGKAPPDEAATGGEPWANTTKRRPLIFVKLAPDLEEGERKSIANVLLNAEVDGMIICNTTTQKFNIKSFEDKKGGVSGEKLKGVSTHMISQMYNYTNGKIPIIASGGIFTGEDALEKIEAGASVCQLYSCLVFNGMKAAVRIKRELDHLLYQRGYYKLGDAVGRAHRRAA
The note with it: read-out: PvDHODH IC50; previous reports; 2 from 15, 3 from 16; cited from earlier work.

For data set [11], the target named is T2, hDHODH (Homo sapiens, UniProt Q02127). The note with it: read-out: hDHODH IC50; previous reports; 2 from 15, 3 from 16; cited from earlier work.
T2 sequence (Q02127 31-395 limits assumed): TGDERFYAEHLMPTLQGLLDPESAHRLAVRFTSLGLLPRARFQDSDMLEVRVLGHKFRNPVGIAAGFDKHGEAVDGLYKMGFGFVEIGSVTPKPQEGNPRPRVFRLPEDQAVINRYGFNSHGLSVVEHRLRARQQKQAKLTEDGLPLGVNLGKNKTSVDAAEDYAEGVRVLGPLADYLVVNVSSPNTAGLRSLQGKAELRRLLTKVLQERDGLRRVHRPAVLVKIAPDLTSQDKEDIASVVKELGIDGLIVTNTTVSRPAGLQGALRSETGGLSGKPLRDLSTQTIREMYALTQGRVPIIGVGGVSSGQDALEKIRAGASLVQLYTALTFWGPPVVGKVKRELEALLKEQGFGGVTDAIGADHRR
The subject of another data set is P. falciparum 3D7 cells. The note with it: read-out: EC50 Pf3D7 cells; previous reports; 2 from 15, 3 from 16; cited from earlier work.
For data set [12] the following is noted: pH 6.5, 30 min at room temperature; cited from earlier work.
Data set [13] addresses T1, PvDHODH. The note with it: PvDHODH IC50 higher than PfDHODH IC50.
Data set [14] in a line: in vitro metabolism, human liver microsomes. Format: in vitro ADME. Background: Microsomes from liver hold many membrane-bound enzymes, among them those of drug oxidation.
For data set [15] the following is noted: approximate.
Data set [16] in a line: plasma protein binding by ultracentrifugation, human plasma. Format: in vitro ADME.
The target of the next data set is dog DHODH (Canis lupus familiaris, UniProt A0A8I3MWX2). Description: biochemical.
Sequence of dog DHODH (A0A8I3MWX2 1-406): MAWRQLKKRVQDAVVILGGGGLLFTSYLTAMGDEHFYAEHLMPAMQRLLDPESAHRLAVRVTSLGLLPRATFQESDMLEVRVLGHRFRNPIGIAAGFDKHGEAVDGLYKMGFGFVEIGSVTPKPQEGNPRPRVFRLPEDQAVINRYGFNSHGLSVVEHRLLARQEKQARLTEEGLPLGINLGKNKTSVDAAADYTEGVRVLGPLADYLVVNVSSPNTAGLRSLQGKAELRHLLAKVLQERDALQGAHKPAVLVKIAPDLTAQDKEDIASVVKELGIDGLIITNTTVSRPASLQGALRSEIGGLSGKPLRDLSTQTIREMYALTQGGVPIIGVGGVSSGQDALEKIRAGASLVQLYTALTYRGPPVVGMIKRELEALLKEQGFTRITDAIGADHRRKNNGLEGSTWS
The nature of data set [17]: plasma protein binding by ultracentrifugation, mouse plasma. The note with it: for PPB mouse (% bound): mouse plasma, ultracentrifugation. The class given is in vitro ADME.
Data set [18] is described as follows: kinetic aqueous solubility by nephelometry. The class given is physicochemical. The note with it: for solubility kinetic at 30 min: pH 6.5 phosphate buffer, pH 6.5.
A short description of data set [19]: plasma protein binding by ultracentrifugation, rat plasma. The class given is in vitro ADME.
A short description of data set [20]: in vitro metabolism, rat liver microsomes. Format: in vitro ADME. The note with it: from rat microsomal CLint using physiological scaling factors.
A short description of the next data set: in vivo. The note with it: Sprague-Dawley, rat, plasma, iv.
The nature of data set [21]: in vitro metabolism, mouse liver microsomes. Format: in vitro ADME.
For data set [22], the target named is T2, hDHODH. The data set is described as follows: biochemical.
Data set [23] has as its target T2, hDHODH. The note with it: read-out: DHODH IC50 human; Table 2; for 1 four independent replicates.
Setting [24] is: 1 QD, converted to different units.
The mark [25] stands for this setting: human, pooled human liver microsomes.

Sequence of hERG K+ channel (Q12809 whole entry): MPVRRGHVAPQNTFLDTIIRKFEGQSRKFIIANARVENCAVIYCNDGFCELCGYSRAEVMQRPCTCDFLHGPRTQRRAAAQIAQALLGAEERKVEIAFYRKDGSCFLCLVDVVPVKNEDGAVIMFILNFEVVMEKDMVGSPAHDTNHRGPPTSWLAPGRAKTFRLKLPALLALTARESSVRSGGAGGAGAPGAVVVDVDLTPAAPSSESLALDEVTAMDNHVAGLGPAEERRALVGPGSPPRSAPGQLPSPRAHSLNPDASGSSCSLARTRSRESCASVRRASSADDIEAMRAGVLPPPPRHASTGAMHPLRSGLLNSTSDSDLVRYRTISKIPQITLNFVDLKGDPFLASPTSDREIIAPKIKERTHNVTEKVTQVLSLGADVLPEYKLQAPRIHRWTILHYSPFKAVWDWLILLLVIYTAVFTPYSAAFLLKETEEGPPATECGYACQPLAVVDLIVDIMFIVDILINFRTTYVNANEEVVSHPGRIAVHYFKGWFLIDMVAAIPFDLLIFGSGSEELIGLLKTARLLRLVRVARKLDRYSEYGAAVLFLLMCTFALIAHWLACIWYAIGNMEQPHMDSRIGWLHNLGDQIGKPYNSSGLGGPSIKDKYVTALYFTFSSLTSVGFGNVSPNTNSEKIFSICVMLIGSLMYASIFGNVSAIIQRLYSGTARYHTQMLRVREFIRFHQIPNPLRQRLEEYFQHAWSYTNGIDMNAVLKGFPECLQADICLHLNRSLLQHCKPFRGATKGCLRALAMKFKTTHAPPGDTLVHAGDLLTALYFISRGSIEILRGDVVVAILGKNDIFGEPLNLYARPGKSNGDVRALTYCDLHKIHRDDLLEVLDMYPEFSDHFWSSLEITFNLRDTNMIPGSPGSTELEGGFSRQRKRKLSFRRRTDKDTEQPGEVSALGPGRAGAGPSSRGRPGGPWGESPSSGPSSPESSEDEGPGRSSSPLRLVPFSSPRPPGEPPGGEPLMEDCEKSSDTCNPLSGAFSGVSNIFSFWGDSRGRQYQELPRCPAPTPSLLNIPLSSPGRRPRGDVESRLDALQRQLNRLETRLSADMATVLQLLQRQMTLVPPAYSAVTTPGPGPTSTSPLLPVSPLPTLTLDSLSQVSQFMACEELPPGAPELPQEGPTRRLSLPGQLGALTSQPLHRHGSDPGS

Regarding `Cc1cc(Nc2ccc(S(F)(F)(F)(F)F)cc2)n2nc(C(C)(F)F)nc2n1` [Compound 1, 2-(1,1-difluoroethyl)-5-methyl-N-[4-(pentafluoro-λ^6-sulfanyl)phenyl]-[1,2,4]triazolo[1,5-a]pyrimidin-7-amine], the “unbound plasma concentration at likely therapeutic doses lower than the IC50 for hERG channel inhibition” value at hERG K+ channel (human, plasma) is 70–320 fold. For the same compound, the ED90 is given as 8.1 mg/kg in [1] (1, QD dosing) and 8.1 mg/kg/day in data set [1] (setting [24]). The AUCED90 in [1] (setting [24]) was 45.7 μM·h/day. Moreover, the “in vitro CLint rat” value in [2] (rat liver microsomes) is listed as 1.8 μL/min/mg protein. Moreover, the “predicted in vivo CLint rat” value in data set [2] (rat, scaled) is on record as 3.1 mL/min/kg. For the same compound, in data set [3] (rat IV […], […]), the “apparent T1/2” value is reported as 13 h. The “oral BA” value in [3] (rat) was 57%. Also, the “PPB rat (% bound)” value in data set [4] was 97.7 % bound. Further, the “PPB mouse (% bound)” value in data set [5] is on record as 99.7 % bound. Besides, the “predicted in vivo CLint human” value in data set [6] is given as 3.5 mL/min/kg. The “predicted in vivo CLint mouse” value in data set [7] is 7.2 mL/min/kg. For the same compound, the “PPB human (% bound)” value in data set [8] is 99.9 % bound. In addition, the “solubility FeSSIF pH 5.8” value in data set [9] is 27.6 ^c μg/mL.

For `Cc1cc(Nc2ccc3ccccc3c2)n2ncnc2n1` [Compound 2, (5-methyl[1,2,4]triazolo[1,5-a]pyrimidin-7-yl)naphthalen-2-ylamine], the IC50 on PvDHODH [10] was 0.23 µM; at hDHODH [11], > 100 µM. For the same compound, in the data set with P. falciparum 3D7 cells, the 50% effective concentration (EC50) was 0.068 µM. In addition, the “kinetic solubility pH 6.5” value in data set [12] is given as 12.5–25 μg/mL. For the same compound, in [6], the “predicted in vivo CLint human” value is 79 mL/min/kg. Moreover, in data set [7], the “predicted in vivo CLint mouse” value is recorded as 591 mL/min/kg.

On to `Cc1cc(N[C@H]2CCc3ccc(Cl)cc3C2)n2nc(C(C)(F)F)nc2n1` [Compound 9, (S)-N-(7-Chloro-1,2,3,4-tetrahydronaphthalen-2-yl)-2-(1,1-difluoroethyl)-5-methyl-[1,2,4]triazolo[1,5-a]pyrimidin-7-amine], for which the “difference of IC50 P. vivax DHODH versus PfDHODH” value at PvDHODH [13] is given as 1.5–3 fold. Besides, the “unbound Cmax at the ED90 lower than the IC50 on the hERG channel” value on hERG K+ channel (SCID study) was ~30 fold. For the same compound, the CLint scaled at 1 μM in [14] (setting [25]) was < 5.8 mL/min/kg. The “Cmax at the ED90 in the SCID study, unbound concentration” value in [15] was “approximately 0.05 μM”. Also, the “PPB human (% bound)” value in [16] came out at 96.7 % bound. Moreover, the concentration for half-maximal inhibition (IC50) against dog DHODH is > 100 µM. Besides, the “PPB mouse (% bound)” value in data set [17] is recorded as 97.4 % bound. The same compound gave a kinetic solubility at 30 min in data set [18] of 3.1 to 6.3 µg/mL (≈ 8.2 to 16.7 µM). Further, the “PPB rat (% bound)” value in data set [19] is listed as 96.4 % bound.

In the case of `Cc1cc(NC2CCc3cc(Br)ccc3C2)n2nc(C(C)(F)F)nc2n1` (stereo not shown) [Compound 11, 2-(1,1-Difluoroethyl)-N-(6-bromo-1,2,3,4-tetrahydronaphthalen-2-yl)-5-methyl-[1,2,4]triazolo[1,5-a]pyrimidin-7-amine], the “difference of IC50 P. vivax DHODH versus PfDHODH” value at PvDHODH [13] is 5–8 fold. The “predicted in vivo CLint human” value in data set [14] (from human microsomal CLint using physiological scaling factors) is < 5.8 mL/min/kg. Besides, the “in vitro CLint human” value in [14] (human liver microsomes) was < 7 μL/min/mg protein. Besides, in data set [20], the “predicted in vivo CLint rat” value is given as 19 mL/min/kg. The “PPB human (% bound)” value in data set [16] is given as 99.0 % bound. For the same compound, the clearance in “in vivo” was 2.8 mL/min/kg. Moreover, the concentration for half-maximal inhibition (IC50) at dog DHODH was > 100 µM. Moreover, the “PPB mouse (% bound)” value in [17] amounted to 99.2 % bound. The “kinetic solubility pH 6.5” value in data set [18] (pH 6.5, range following 30 min at room temperature) was 3.1–6.3 μg/mL. Moreover, the “PPB rat (% bound)” value in data set [19] was 99.7 % bound. Moreover, the “predicted in vivo CLint mouse” value in [21] (from mouse microsomal CLint using physiological scaling factors) is recorded as 67 mL/min/kg. Further, the “in vitro CLint mouse” value in data set [21] (mouse liver microsomes) came out at 26 μL/min/mg protein.

For the compound `Cc1cc(NC2CCc3ccc(Br)cc3C2)n2nc(C(C)(F)F)nc2n1` (stereo not shown) [Compound 13, 2-(1,1-Difluoroethyl)-N-(7-bromo-1,2,3,4-tetrahydronaphthalen-2-yl)-5-methyl-[1,2,4]triazolo[1,5-a]pyrimidin-7-amine], the “difference of IC50 P. vivax DHODH versus PfDHODH” value at PvDHODH [13] is on record as 1.5–3 fold. The IC50 at hDHODH [22], on hDHODH [23] and against dog DHODH was > 100 µM each time. For the same compound, the CLint scaled at 1 μM in data set [14] (setting [25]) was < 5.8 mL/min/kg. Further, the microsomal CLint at 1 μM in data set [14] (setting [25]) is < 7 µL/min/mg. In addition, the “PPB human (% bound)” value in data set [16] is 96.3 % bound. In “in vivo”, this compound showed a clearance of 22.4 mL/min/kg. Besides, the “mouse PPB (% bound)” value in data set [17] (approximation based on rat and human plasma protein binding data) is 97.2 ^c % bound. For the same compound, the kinetic solubility at 30 min in [18] lay within 1.6 to 3.1 µg/mL (≈ 3.79 to 7.34 µM). The “PPB rat (% bound)” value in data set [19] is reported as 97.2 % bound.

One may read the IC50 as the concentration that gives 50% inhibition. Broadly, the EC50 is the midpoint of the concentration-response curve. As usually defined, the CLint scaled is the rate of metabolic loss divided by the concentration. Read a low CLint scaled as greater metabolic stability. For orientation: solubility (kinetic) means the concentration staying in solution when a stock, usually in DMSO, is diluted into the medium. What is called clearance is the volume of plasma or blood freed of the substance per unit of time. Low readings indicate a low capacity for elimination, high ones a high capacity for elimination. As usually defined, the microsomal CLint is the rate of metabolic loss divided by the concentration. A low value points to slow turnover.
